Test results reported in patent publication US20260200920A1, “SUBSTITUTED AMINOPYRIDINE COMPOUNDS FOR USE AS AKT1 INHIBITORS” (Atavistik Bio, Inc., priority 2023, published 2026).
pIC50: −log10 of the molar value.

What was measured:
[1] = biological target: T1, human recombinant kinase full-length AKT1 E17K (Homo sapiens, UniProt P31749, E17K); assay: AKT1 E17K kinase assay (TR-FRET, Lance); type: biochemical; settings: 0.6 nM AKT1 E17K, 50 nM Ulight-CREBtide, either 50 μM ATP or 2 mM ATP, 60 min at RT
T1 construct: Purified human recombinant kinase full-length AKT1 E17K was expressed in insect cells; made in house; host or cells: insect cells
T1 sequence (P31749 whole entry E17K): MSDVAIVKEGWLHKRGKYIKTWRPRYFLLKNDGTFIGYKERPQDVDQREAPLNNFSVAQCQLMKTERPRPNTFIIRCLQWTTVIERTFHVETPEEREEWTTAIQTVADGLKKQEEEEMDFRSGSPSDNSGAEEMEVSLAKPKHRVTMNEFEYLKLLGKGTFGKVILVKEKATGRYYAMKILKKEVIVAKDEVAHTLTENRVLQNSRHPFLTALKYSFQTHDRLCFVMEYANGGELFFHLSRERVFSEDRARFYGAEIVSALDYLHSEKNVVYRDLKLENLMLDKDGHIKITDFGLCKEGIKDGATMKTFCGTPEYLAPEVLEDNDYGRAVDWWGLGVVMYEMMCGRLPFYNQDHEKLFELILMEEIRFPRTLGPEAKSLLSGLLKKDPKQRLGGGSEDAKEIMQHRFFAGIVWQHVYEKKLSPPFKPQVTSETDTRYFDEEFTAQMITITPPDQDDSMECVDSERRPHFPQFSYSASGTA
In short: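 Full-length AKT1 E17K from insect cells, PDPK1-activated, at 0.6 nM with 50 nM Ulight-CREBtide and 50 μM or 2 mM ATP, pH 7.5, 1% DMSO. Enzyme and compound preincubated 15 min, reaction run 60 min at RT; Eu-anti-phospho-CREB (Ser133) TR-FRET 665/620 ratio, 10-point curve, IC50 by 4-parameter fit.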

[2] = biological target: T2, human recombinant kinase full-length wildtype AKT1 (Homo sapiens, UniProt P31749); assay: AKT1 kinase assay (wildtype, TR-FRET, Lance); type: biochemical; settings: 0.6 nM wildtype AKT1, 50 nM Ulight-CREBtide, either 50 μM ATP or 2 mM ATP, 60 min at RT
T2 construct: Purified human recombinant kinase full-length wildtype AKT1 was expressed in insect cells; made in house; host or cells: insect cells
T2 sequence (P31749 whole entry): as the sequence (P31749 whole entry E17K) above, with K17E counted along it
In short: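 Insect-cell-expressed full-length human AKT1, PDPK1-activated (0.6 nM), preincubated with compound 15 min at RT, then reacted 60 min at RT with 50 nM ULight-CREBtide and 50 μM or 2 mM ATP (pH 7.5, 1% DMSO). Phospho-CREBtide read by Eu-anti-phospho-Ser133 TR-FRET (665/620 ratio); IC50 from 10-point 4-parameter fit.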

SMILES | pIC50 [1] | pIC50 [2]
CC1(c2ccc(-n3c(-c4cccnc4N)nc4ccc(-c5ccccc5)nc43)cc2)CN(C[C@H]2CC[C@H](C(=O)O)CC2)C1 [Compound I-154] | 5.70 to 6.30 | > 4.70
Cc1cc(C2(C)CN(C[C@H]3CC[C@H](C(=O)O)CC3)C2)ccc1-n1c(-c2cccnc2N)nc2ccc(-c3ccccc3)nc21 [Compound I-156] | 5.70 to 6.30 | > 4.70
Cc1cc(C2(C)CN(CC3CC4(C3)CC(C(=O)O)C4)C2)ccc1-n1c(-c2cccnc2N)nc2ccc(-c3ccccc3)nc21 (stereo not drawn) [Compound I-157] | 5.70 to 6.30 | > 4.70
CN(CCc1ccc(-n2c(-c3cccnc3N)nc3ccc(-c4ccccc4)nc32)cc1)[C@H]1CC[C@H](C(=O)O)CC1 [Compound I-158] | 5.70 to 6.30 | > 4.70
C[C@@H]1C[C@H](N(C)Cc2ccc(-n3c(-c4cccnc4N)nc4ccc(-c5ccccc5)nc43)c(F)c2)C[C@H](C)[C@H]1C(=O)O [Compound I-160] | 5.70 to 6.30 | > 4.70
CCN(Cc1ccc(-n2c(-c3cccnc3N)nc3ccc(-c4ccccc4)nc32)c(F)c1)[C@H]1CC[C@@H](C(=O)O)CC1 [Compound I-162] | ≤ 5.70 | > 4.70
CCN(Cc1ccc(-n2c(-c3cccnc3N)nc3ccc(-c4ccccc4)nc32)c(F)c1)[C@H]1CC[C@H](C(=O)O)CC1 [Compound I-163] | ≤ 5.70 | > 4.70
CN(Cc1ccc(-n2c(-c3cccnc3N)nc3ccc(-c4ccccc4)nc32)c(F)c1)[C@H]1CC[C@H](C(=O)O)CC1 [Compound I-164] | 5.70 to 6.30 | > 4.70
CC(C)CN(Cc1ccc(-n2c(-c3cccnc3N)nc3ccc(-c4ccccc4)nc32)cc1)[C@H]1CC[C@H](C(=O)O)CC1 [Compound I-166] | ≤ 5.70 | > 4.70
CCN(Cc1ccc(-n2c(-c3cccnc3N)nc3ccc(-c4ccccc4)nc32)cc1)[C@H]1CC[C@H](C(=O)O)CC1 [Compound I-167] | 5.70 to 6.30 | > 4.70
CC(C)N(Cc1ccc(-n2c(-c3cccnc3N)nc3ccc(-c4ccccc4)nc32)cc1)[C@H]1CC[C@H](C(=O)O)CC1 [Compound I-168] | ≤ 5.70 | > 4.70
CN(Cc1ccc(-n2c(-c3cccnc3N)nc3ccc(-c4ccccc4)nc32)cc1)C1CC[C@@H](C(=O)O)C1 (stereo partly drawn) [Compound I-173] | 5.70 to 6.30 | > 4.70
CC(c1ccc(-n2c(-c3cccnc3N)nc3ccc(-c4ccccc4)nc32)cc1)N(C)[C@H]1CC[C@H](C(=O)O)CC1 (stereo partly drawn) [Compound I-176] | 5.70 to 6.30 | > 4.70
CC(c1ccc(-n2c(-c3cccnc3N)nc3ccc(-c4ccccc4)nc32)cc1)N(C)[C@H]1CC[C@@H](C(=O)O)CC1 (stereo partly drawn) [Compound I-177] | 5.70 to 6.30 | > 4.70
Cc1cc(CN(C)[C@H]2CC[C@H](C(=O)O)CC2)ccc1-n1c(-c2cccnc2N)nc2ccc(-c3ccccc3)nc21 [Compound I-178] | ≤ 5.70 | > 4.70
Cc1cc(CN(C)[C@H]2CC[C@@H](C(=O)O)CC2)ccc1-n1c(-c2cccnc2N)nc2ccc(-c3ccccc3)nc21 [Compound I-179] | 5.70 to 6.30 | > 4.70
Cc1cc(CN2CCC(C(C)(C)C(=O)O)C2)ccc1-n1c(-c2cccnc2N)nc2ccc(-c3ccccc3)nc21 (stereo not drawn) [Compound I-180] | ≤ 5.70 | > 4.70
NC(=O)N1CCC(CCc2ccc(-n3c(-c4cccnc4N)nc4ccc(-c5ccccc5)nc43)cc2F)CC1 [Compound I-181] | 5.70 to 6.30 | > 4.70
Cc1nc(CN(C)[C@H]2CC[C@H](C(=O)O)CC2)ccc1-n1c(-c2cccnc2N)nc2ccc(-c3ccccc3)nc21 [Compound I-183] | ≤ 5.70 | > 4.70
Cc1nc(CN(C)[C@H]2CC[C@@H](C(=O)O)CC2)ccc1-n1c(-c2cccnc2N)nc2ccc(-c3ccccc3)nc21 [Compound I-184] | 5.70 to 6.30 | > 4.70

The next lines start with the values.

pIC50 [1] | pIC50 [2] | SMILES
> 6.30 | > 4.70 | C[C@]1(C(=O)O)CC[C@H](CN2CC(c3ccc(-n4c(-c5cccnc5N)nc5ccc(-c6ccccc6)nc54)cc3)C2)CC1 [Compound I-138, (1r,4r)-4-((3-(4-(2-(2-aminopyridin-3-yl)-5-phenyl-3H-imidazo[4,5-b]pyridin-3-yl)phenyl)azetidin-1-yl)methyl)-1-methylcyclohexane-1-carboxylic acid]
> 6.30 | > 4.70 | Cc1cc(C2CN(C[C@H]3CC[C@H](C(=O)O)CC3)C2)ccc1-n1c(-c2cccnc2N)nc2ccc(-c3ccccc3)nc21 [Compound I-139, (1r,4r)-4-((3-(4-(2-(2-aminopyridin-3-yl)-5-phenyl-3H-imidazo[4,5-b]pyridin-3-yl)-3-methylphenyl)azetidin-1-yl)methyl)cyclohexane-1-carboxylic acid]
5.70 to 6.30 | > 4.70 | NC(=O)C1CCC(CN2CC(c3ccc(-n4c(-c5cccnc5N)nc5ccc(-c6ccccc6)nc54)cc3)C2)CC1 (stereo not drawn) [Compound I-140, 4-((3-(4-(2-(2-aminopyridin-3-yl)-5-phenyl-3H-imidazo[4,5-b]pyridin-3-yl)phenyl)azetidin-1-yl)methyl)cyclohexane-1-carboxamide]
5.70 to 6.30 | > 4.70 | CNC(=O)[C@H]1CC[C@H](C(=O)Nc2ccc(-n3c(-c4cccnc4N)nc4ccc(-c5ccccc5)nc43)c(C)n2)CC1 [Compound I-141, (1r,4r)-N1-(5-(2-(2-aminopyridin-3-yl)-5-phenyl-3H-imidazo[4,5-b]pyridin-3-yl)-6-methylpyridin-2-yl)-N4-methylcyclohexane-1,4-dicarboxamide]
5.70 to 6.30 | > 4.70 | Cc1nc(NC(=O)[C@H]2CC[C@H](C(N)=O)CC2)ccc1-n1c(-c2cccnc2N)nc2ccc(-c3ccccc3)nc21 [Compound I-142, trans-N-(5-(2-(2-aminopyridin-3-yl)-5-phenyl-3H-imidazo[4,5-b]pyridin-3-yl)-6-methylpyridin-2-yl)cyclohexane-1,4-dicarboxamide]
5.70 to 6.30 | > 4.70 | CC(C)C([C@H]1CC[C@H](C(=O)O)CC1)N1CC(c2ccc(-n3c(-c4cccnc4N)nc4ccc(-c5ccccc5)nc43)cc2)C1 (stereo partly drawn) [Compound I-143]
> 6.30 | > 4.70 | Nc1ncccc1-c1nc2ccc(-c3ccccc3)nc2n1-c1ccc(C2CN(CC34CCC(C(=O)O)(CC3)CC4)C2)cc1 [Compound I-146]
> 6.30 | > 4.70 | CC1(C)C[C@H](CN2CC(c3ccc(-n4c(-c5cccnc5N)nc5ccc(-c6ccccc6)nc54)cc3)C2)CC(C)(C)[C@H]1C(=O)O [Compound I-147]
> 6.30 | > 4.70 | CC1(C)C[C@H](CN2CC(c3ccc(-n4c(-c5cccnc5N)nc5ccc(-c6ccccc6)nc54)cc3)C2)CC(C)(C)[C@@H]1C(=O)O [Compound I-148]
> 6.30 | > 4.70 | Nc1ncccc1-c1nc2ccc(-c3ccccc3)nc2n1-c1ccc(C2CN(C[C@H]3CC4CC3CC4C(=O)O)C2)cc1 (stereo partly drawn) [Compound I-149]
> 6.30 | > 4.70 | Nc1ncccc1-c1nc2ccc(-c3ccccc3)nc2n1-c1ccc(C2CN(C[C@@H]3CC4CC3CC4C(=O)O)C2)cc1 (stereo partly drawn) [Compound I-150]
> 6.30 | > 4.70 | Nc1ncccc1-c1nc2ccc(-c3ccccc3)nc2n1-c1ccc(C2CN(CC3CC4CC(C(=O)O)CC4C3)C2)cc1 (stereo not drawn) [Compound I-151]
5.70 to 6.30 | > 4.70 | CNS(=O)(=O)C1CCC(CN2CC(c3ccc(-n4c(-c5cccnc5N)nc5ccc(-c6ccccc6)nc54)cc3)C2)CC1 (stereo not drawn) [Compound I-152]
> 6.30 | > 4.70 | Nc1ncccc1-c1nc2ccc(-c3ccccc3)nc2n1-c1ccc(C2CN(CC3CCC(CC(=O)O)CC3)C2)cc1 (stereo not drawn) [Compound I-153]
> 6.30 | > 4.70 | CC1(c2ccc(-n3c(-c4cccnc4N)nc4ccc(-c5ccccc5)nc43)cc2)CN(CC2CC3(C2)CC(C(=O)O)C3)C1 (stereo not drawn) [Compound I-155]
> 6.30 | > 4.70 | Nc1ncccc1-c1nc2ccc(-c3ccccc3)nc2n1-c1ccc(CCN2CCC(C(=O)O)C2)cc1 (stereo not drawn) [Compound I-159]
> 6.30 | > 4.70 | CN(Cc1ccc(-n2c(-c3cccnc3N)nc3ccc(-c4ccccc4)nc32)c(F)c1)C12CCC(C(=O)O)(CC1)CC2 [Compound I-161]
> 6.30 | > 4.70 | CN(Cc1ccc(-n2c(-c3cccnc3N)nc3ccc(-c4ccccc4)nc32)c(F)c1)[C@H]1CC[C@@H](C(=O)O)CC1 [Compound I-165]
> 6.30 | > 4.70 | CN(Cc1ccc(-n2c(-c3cccnc3N)nc3ccc(-c4ccccc4)nc32)cc1)[C@H]1CC[C@H](CC(=O)O)CC1 [Compound I-169]
> 6.30 | > 4.70 | CN(Cc1ccc(-n2c(-c3cccnc3N)nc3ccc(-c4ccccc4)nc32)cc1)[C@@H]1CC[C@@H](C(=O)O)C1 [Compound I-170]
> 6.30 | > 4.70 | CN(Cc1ccc(-n2c(-c3cccnc3N)nc3ccc(-c4ccccc4)nc32)cc1)C1CC[C@H](C(=O)O)C1 (stereo partly drawn) [Compound I-172]
> 6.30 | > 4.70 | Cc1nc(NC(=O)N2CCC(C(=O)O)CC2)ccc1-n1c(-c2cccnc2N)nc2ccc(-c3ccccc3)nc21 [Compound I-182]
